From paper PMC10304486, “The FilZ Protein Contains a Single PilZ Domain and Facilitates the Swarming Motility of Pseudoalteromonas sp. SM9913” (Microorganisms, 2023)

How the values were obtained:
Test in all cases: isothermal titration calorimetry
Type in all cases: binding
[1] = target: T1, FilZ (Pseudoalteromonas tetraodonis, UniProt A0AA37S473, G101A)
T1 construct: gene GCM10007914_23770; single PilZ domain protein

[2] = target: T2, FilZ (Pseudoalteromonas tetraodonis, UniProt A0AA37S473, G58A)
T2 construct: gene GCM10007914_23770; single PilZ domain protein
T2 sequence (A0AA37S473 entry or part of it G58A): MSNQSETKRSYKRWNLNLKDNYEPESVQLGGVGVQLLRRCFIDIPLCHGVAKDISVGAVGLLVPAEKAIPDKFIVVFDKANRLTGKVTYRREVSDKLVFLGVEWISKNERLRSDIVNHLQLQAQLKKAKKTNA

[3] = target: T3, FilZ (Pseudoalteromonas tetraodonis, UniProt A0AA37S473, D53A)
T3 construct: gene GCM10007914_23770; single PilZ domain protein
T3 sequence (A0AA37S473 entry or part of it D53A): as the sequence (A0AA37S473 entry or part of it G58A) above, with D53A, A58G counted along it

[4] = target: T4, FilZ (Pseudoalteromonas tetraodonis, UniProt A0AA37S473, R13A)
T4 construct: gene GCM10007914_23770; single PilZ domain protein
T4 sequence (A0AA37S473 entry or part of it R13A): as the sequence (A0AA37S473 entry or part of it G58A) above, with R13A, A58G counted along it

[5] = target: T5, FilZ (Pseudoalteromonas tetraodonis, UniProt A0AA37S473, R9A)
T5 construct: gene GCM10007914_23770; single PilZ domain protein
T5 sequence (A0AA37S473 entry or part of it R9A): as the sequence (A0AA37S473 entry or part of it G58A) above, with R9A, A58G counted along it

[6] = target: T6, FilZ (Pseudoalteromonas tetraodonis, UniProt A0AA37S473)
T6 construct: gene GCM10007914_23770; single PilZ domain protein
T6 sequence (A0AA37S473 1-133): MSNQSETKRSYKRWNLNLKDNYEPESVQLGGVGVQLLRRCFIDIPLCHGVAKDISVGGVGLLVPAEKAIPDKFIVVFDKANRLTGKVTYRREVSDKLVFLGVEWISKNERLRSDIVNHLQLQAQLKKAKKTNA

T1 sequence (A0AA37S473 entry or part of it G101A): as the sequence (A0AA37S473 entry or part of it G58A) above, with A58G, G101A counted along it

Kd [6]: 230 nM
SMILES: Nc1nc2c(ncn2[C@@H]2O[C@@H]3COP(=O)(O)O[C@H]4[C@@H](O)[C@H](n5cnc6c(=O)[nH]c(N)nc65)O[C@@H]4COP(=O)(O)O[C@H]3[C@H]2O)c(=O)[nH]1 [c-di-GMP]
completely lost the ability to bind [1]: Mutants R9A, R13A, D53A, G58A, and G101A all completely lost the ability to bind c-di-GMP | completely lost the ability to bind [2]: Mutants R9A, R13A, D53A, G58A, and G101A all completely lost the ability to bind c-di-GMP | completely lost the ability to bind [3]: Mutants R9A, R13A, D53A, G58A, and G101A all completely lost the ability to bind c-di-GMP | completely lost the ability to bind [4]: Mutants R9A, R13A, D53A, G58A, and G101A all completely lost the ability to bind c-di-GMP | completely lost the ability to bind [5]: Mutants R9A, R13A, D53A, G58A, and G101A all completely lost the ability to bind c-di-GMP
